Laboratory results: patent publication US8822533B1, “Methods and compositions for repelling and/or killing insects” (The United States of America, as represented by the …, priority 2011, dated 2014)

Key:
Type in all cases: in vivo
[1] = test system: Ae. aegypti + An. albimanus; experiment: Bite protection of FRACUs (Defender-M) treated with insecticides; settings: FRACU (Defender-M) sleeve; allethrin 0.085, bioresmethrin 0.106, etofenprox 0.101, bifenthrin 0.101 mg/cm^2
Experimental: Biological Evaluation: Bite protection assays were conducted with laboratory-reared 7-12 day old mosquitoes or sand flies. The species used throughout these studies are Aedes aegypti (Orlando, 1952) and Phlebotomus papatasi sand flies (Jerusalem, 1983). Females were pre-selected using either a hand draw box or a mechanical aspirator.
An assay was conducted by wearing sewn sleeves made from clothing material. Treated specimens were assayed with untreated controls to correct for the bite resistance afforded by material construction and composition. The untreated control was tested at the beginning of the experiment, followed by successively higher candidate repellent concentrations on sleeves. Sleeves were sewn from a cut out single ply trapezoidal pattern (33.2 cm×21 cm×25.5 cm height) of material. Sleeves were normally with a candidate repellent at the EPA permethrin label rate of 0.52% weight on (+5% tolerance) or less (0.125 mg/cm^2 for the 50/50 Nylon/Cotton (NYCO) Army Combat Uniform and 0108 mg./cm2 for the 65% Rayon/25% Para-aramid/10% Nylon Fire-Resistant Army Combat Uniform). Permethrin was 35:65cis: trans, 95.85% technical material. Experimental repellents were received as neat samples with <5% impurities. The treatment occurred by dissolution of repellent in suitable quantity of acetone to saturate the clothing, but minimizing excess solution. Excess solution was quantified and this amount of excess was then used to calculate the estimated amount of repellent applied to the material.
Insects were maintained in colony at approximately 78° F. and 60-80% RH. The photoperiod was 12:12. The mosquito cages were approximately 60000 cm^3 and each contained 175 to 225 female mosquitoes. […] Cages for sand fly work were slightly smaller (15000 cm^3) and constructed of acrylic for filming purposes and with screens on the exterior edges to allow air flow through the system. About 20-40 sand flies were released in cages for each assay. Assays started when the sleeved arm was inserted through the sleeve into the cage. Normally the hand was protected by a glove, but there were situations (i.e. sand fly data presented here) when the ability of a repellent to protect the untreated hand was determined. The assay periods were 15 min for the mosquitoes and 25-30 minutes for sand flies. The insects were allowed to land, probe and possibly bloodfeed during this time. At the conclusion of the experiment, all insects were knocked down or aspirated and the percentage that bloodfed of the total female test population in the cage was recorded. The protect level was calculated by Abbott's formula as a percentage reduction in bites compared to the untreated fabric control sleeve.
We were able to examine several treatments on the FRACU fabric sleeves (Table 7). […]

[2] = test system: bed bugs (Cimex lectularius); experiment: Bed bug mortality on treated filter paper; settings: Cimex lectularius, 24 h
Experimental: Knockdown data and mortality for volatile pyrethroids against bed bugs (Cimex lectularius): Compounds were dissolved in acetone to yield concentrations of 100 μg/cm^2, 10 μg/cm^2, and 1 μg/cm^2 and 47 mm filter paper disks were treated. Acetone-treated filter paper was used as a negative control. Mixed stages (nymphs and adults) of a laboratory colony of the bed bug Cimex lectularius were placed on the treated filter paper in glass Petri dishes and mortality was recorded 24 h later, at which time bed bugs were removed to untreated surfaces. 24 h after this transfer another assessment of mortality was made to see if any dead or moribund bugs had recovered.

[3] = test system: bed bugs (Cimex lectularius); experiment: Bed bug mortality on treated filter paper; settings: 24 h

Compound: CC(C)=C[C@@H]1[C@@H](C(=O)OCc2coc(Cc3ccccc3)c2)C1(C)C [Bioresmethrin]
- Bite Protection (% ± SE) (Ae. aegypti + An. albimanus) [1]: 98.1 ± 0.8%

Compound: Cc1c(Cl)c(Cl)c(COC(=O)[C@@H]2[C@@H](C=C(Cl)Cl)C2(C)C)c(Cl)c1Cl [TL-I-111]
- mortality at 1 µg/cm2 [2]: 0%
- mortality at 10 µg/cm2 [2]: 100%
- mortality at 100 µg/cm2 [2]: 100%
- mortality at 5 µg/cm2 [3]: 100%

Compound: C=CCC1=C(C)C(OC(=O)C2C(C=C(C)C)C2(C)C)CC1=O (stereo not shown) [Allethrin]
- Bite Protection (% ± SE) (Ae. aegypti + An. albimanus) [1]: 98.7 ± 0.8%

Compound: CCOc1ccc(C(C)(C)COCc2cccc(Oc3ccccc3)c2)cc1 [Etofenprox]
- Bite Protection (% ± SE) (Ae. aegypti + An. albimanus) [1]: 94.9 ± 0.6%
